Values joined by “and” are separate entries in the source; they are usually repeats but may differ in a detail not shown here. Identical values can stand only once.
Key:
[1] = molecular target: Glycogen synthase kinase-3 beta (Homo sapiens, UniProt P49841); assay: TR-FRET Assay
Summary of the method: (§1)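 30 min preinc w/ cpd in assay buffer → kinase rxn → EDTA quench → add detection mix (40 nM SA-d2, 2 nM Tb-pSer641 Ab) → TR-FRET read.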

[2] = molecular target: Glycogen synthase kinase-3 alpha (Homo sapiens, UniProt P49840); assay: TR-FRET Assay
Glycogen synthase kinase-3 alpha, sequence (P49840 whole entry): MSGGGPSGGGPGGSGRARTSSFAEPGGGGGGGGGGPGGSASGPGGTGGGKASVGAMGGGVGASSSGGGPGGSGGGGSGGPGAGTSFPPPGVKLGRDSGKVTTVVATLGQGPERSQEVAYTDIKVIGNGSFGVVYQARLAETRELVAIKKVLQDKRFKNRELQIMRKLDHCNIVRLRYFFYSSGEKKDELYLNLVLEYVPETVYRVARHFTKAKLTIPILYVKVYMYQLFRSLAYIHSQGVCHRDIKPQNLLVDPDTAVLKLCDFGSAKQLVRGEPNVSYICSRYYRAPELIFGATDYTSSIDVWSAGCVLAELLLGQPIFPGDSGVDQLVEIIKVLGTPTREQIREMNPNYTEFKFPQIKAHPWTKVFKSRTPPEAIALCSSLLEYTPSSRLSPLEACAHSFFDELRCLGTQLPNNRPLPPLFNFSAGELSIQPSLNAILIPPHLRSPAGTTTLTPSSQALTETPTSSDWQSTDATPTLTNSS
Summary of the method: as §1

Glycogen synthase kinase-3 beta, sequence (P49841 whole entry): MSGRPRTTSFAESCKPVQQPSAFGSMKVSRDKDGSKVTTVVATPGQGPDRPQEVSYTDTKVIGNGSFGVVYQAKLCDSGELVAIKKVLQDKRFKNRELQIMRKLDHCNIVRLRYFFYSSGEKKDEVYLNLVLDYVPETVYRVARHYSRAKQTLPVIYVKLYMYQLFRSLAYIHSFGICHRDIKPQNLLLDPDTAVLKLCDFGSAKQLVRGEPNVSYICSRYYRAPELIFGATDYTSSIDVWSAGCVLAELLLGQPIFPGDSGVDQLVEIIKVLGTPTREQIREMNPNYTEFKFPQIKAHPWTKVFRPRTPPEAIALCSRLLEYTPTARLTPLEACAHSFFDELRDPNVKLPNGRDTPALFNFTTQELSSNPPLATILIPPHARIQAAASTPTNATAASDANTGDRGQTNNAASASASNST

IC50 [1] | IC50 [2] | Compound
< 0.1 µM | < 0.1 µM | CC1(C)CC(=O)C2=C(C1)NC1=C(CN=N1)C21COC2(CN(C(=O)CC3CCCC3)C2)C1 (stereo unspecified) [US20250313563, Compound 947293]
0.1 to 1 µM | < 0.1 µM | CC[C@]1(c2cccc(-c3c4c(cn3C)CCCC4)c2)C2=CN=NC2NC2=C1C(=O)NC(C)(C)C2 (stereo partly specified) [US20250313563, Compound 948655]
> 5 µM | 1 to 5 µM | CC1(C)CC(=O)C2=C(C1)NC1N=NC=C1[C@@]21CCCc2c(-c3ccncc3)cccc21 (stereo partly specified) [US20250313563, Compound 945547]
> 5 µM | > 5 µM | CC[C@]1(c2ccccc2)C2=C(N=NC2)NC2=C1C(=O)[C@H]1CC[C@@H]2C1 [US20250313563, Compound 791268]
< 0.1 µM | < 0.1 µM | COc1cncc(S(=O)(=O)N2CCC3(CC2)C2=C(N=NC2)NC2=C3C(=O)CC(C)(C)C2)c1 [US20250313563, Compound 947465]
1 to 5 µM | 0.1 to 1 µM | CC[C@@]1(c2cccc(-c3cc(C(F)(F)F)nn3C)c2)C2=CN=NC2NC2=C1C(=O)NC(C)(C)C2 (stereo partly specified) [US20250313563, Compound 952018]
0.1 to 1 µM | 0.1 to 1 µM | CC1(C)CC(=O)C2=C(C1)NC1=C(CN=N1)[C@]21CCN(S(=O)(=O)c2cccc(F)c2)C1 [US20250313563, Compound 951861]
0.1 to 1 µM | < 0.1 µM | CCC1(c2cccc(-c3ccnc(C)c3OC)c2)C2=CN=NC2NC2=C1C(=O)NC(C)(C)C2 (stereo unspecified) [US20250313563, Compound 948794]
< 0.1 µM | < 0.1 µM | CC1(C)CC(=O)C2=C(C1)NC1N=NC(C(F)(F)F)=C1C21CCCc2ccccc21 (stereo unspecified) [US20250313563, Compound 790745]
0.1 to 1 µM | < 0.1 µM | CCC1(c2cccc(-c3ccnc(C)c3)c2)C2=CN=NC2NC2=C1C(=O)N(C)C(C)(C)C2 (stereo unspecified) [US20250313563, Compound 948302]
> 5 µM | 1 to 5 µM | CC[C@]1(c2cccc(-c3cn(C)nc3C)c2)C2=C(CC(C)(C)NC2=O)NC2N=NC(F)=C21 (stereo partly specified) [US20250313563, Compound 949176]
< 0.1 µM | < 0.1 µM | Cc1ccc(C(=O)N2CC3(C2)CC2(CO3)C3=C(N=NC3)NC3=C2C(=O)CC(C)(C)C3)cc1 (stereo unspecified) [US20250313563, Compound 947290]
> 5 µM | > 5 µM | CC[C@]1(c2cccc(CN(C)c3ccc(C(F)(F)F)nc3)c2)C2=CN=NC2NC2=C1C(=O)CC(C)(C)C2 (stereo partly specified) [US20250313563, Compound 945484]
> 5 µM | > 5 µM | CC[C@@]1(c2cccc(C(F)(F)F)c2)C2=CN=NC2NC2=C1C(=O)NCC2 (stereo partly specified) [US20250313563, Compound 912668]
1 to 5 µM | 1 to 5 µM | CCC1(c2cccc(N3CCCCC3)c2)C2=CN=NC2NC2=C1C(=O)NC(C)(C)C2 (stereo unspecified) [US20250313563, Compound 947566]
> 5 µM | 1 to 5 µM | CC[C@@]1(c2cccc(-c3cnc(C)n3C)c2)C2=CN=NC2NC2=C1C(=O)CC(C)(C)C2 (stereo partly specified) [US20250313563, Compound 945612]
1 to 5 µM | 0.1 to 1 µM | CCC1(c2cccc(C(F)(F)F)c2)C2=C(N=NC2)NC2=C1C(=O)NC2C (stereo unspecified) [US20250313563, Compound 917295]
1 to 5 µM | 0.1 to 1 µM | CCC1(c2cccc(N(C)c3cccnc3C)c2)C2=CN=NC2NC2=C1C(=O)CC(C)(C)C2 (stereo unspecified) [US20250313563, Compound 885355]
0.1 to 1 µM | 0.1 to 1 µM | CCC1(c2cccc(C3CC4CCC(C3)O4)c2)C2=CN=NC2NC2=C1C(=O)CC(C)(C)C2 (stereo unspecified) [US20250313563, Compound 889622]
0.1 to 1 µM | 0.1 to 1 µM | CC[C@]1(c2cccc(N3C[C@@H](C)[C@H](C)C3)c2)C2=CN=NC2NC2=C1C(=O)CC(C)(C)C2 (stereo partly specified) [US20250313563, Compound 924504]
1 to 5 µM | 0.1 to 1 µM | CCC1(c2cccc(C(F)(F)F)c2)C2=C(N=NC2)NC2=C1C(=O)N(C)C2 (stereo unspecified) [US20250313563, Compound 917294]
> 5 µM | 0.1 to 1 µM | CCC1(c2cccc(C(F)(F)F)c2)C2=CN=NC2NC2=C1C(=O)N(Cc1ccccc1)CC2 (stereo unspecified) [US20250313563, Compound 897749]
< 0.1 µM | < 0.1 µM | CC1(C)CC(=O)C2=C(C1)NC1=C(CN=N1)C21COC2(CN(C(=O)C3CCC(F)C3)C2)C1 (stereo unspecified) [US20250313563, Compound 947486]
< 0.1 µM | < 0.1 µM | CC1(C)CC(=O)C2=C(C1)NC1=C(CN=N1)C21COC2(CN(C(=O)C(F)F)C2)C1 (stereo unspecified) [US20250313563, Compound 947485]
< 0.1 µM | < 0.1 µM | CC1(C)CC(=O)C2=C(C1)NC1=C(CN=N1)C21COC2(CN(C(=O)Cc3ccccc3)C2)C1 (stereo unspecified) [US20250313563, Compound 947306]
> 5 µM | 1 to 5 µM | CC[C@@]1(c2cccc(N(C)c3ccnc(F)c3)c2)C2=CN=NC2NC2=C1C(=O)CC(C)(C)C2 (stereo partly specified) [US20250313563, Compound 929453]
< 0.1 µM and 0.1 to 1 µM | < 0.1 µM | CC[C@]1(c2cccc(-c3cn(C)nc3C)c2)C2=CN=NC2NC2=C1C(=O)NC1(CCC1)C2 (stereo partly specified) [US20250313563, Compound 950055]

IC50 [1] | IC50 [2] | Compound
0.1 to 1 µM | < 0.1 µM | Cc1ccc(C)c(C(=O)N2CC3(C2)CC2(CO3)C3=C(N=NC3)NC3=C2C(=O)CC(C)(C)C3)c1 (stereo unspecified) [US20250313563, Compound 947285]
0.1 to 1 µM | < 0.1 µM | CC[C@]1(c2cccc(C(F)(F)F)c2)C2=CN=NC2NC2=C1C(=O)N[C@H](C)C2 (stereo partly specified) [US20250313563, Compound 912096]
0.1 to 1 µM | 0.1 to 1 µM | CC(C)(C)CC1N=NC2=C1[C@](C)(c1cccc(S(=O)(=O)CC3CC3)c1)C1=C(CC(C)(C)NC1=O)N2 (stereo partly specified) [US20250313563, Compound 108005]
< 0.1 µM | < 0.1 µM | CC1(C)CC(=O)C2=C(C1)NC1=C(CN=N1)[C@]21CC[C@H](c2ccncc2)CC1 [US20250313563, Compound 949321]
0.1 to 1 µM | 0.1 to 1 µM | CC1(C)CC(=O)C2=C(C1)NC1=C(CN=N1)[C@@]21COC2(CCC2)C1 [US20250313563, Compound 917129]
< 0.1 µM | < 0.1 µM | CC[C@]1(c2cccc(-c3ccncc3C)c2)C2=CN=NC2NC2=C1C(=O)N[C@]1(CCCOC1)C2 (stereo partly specified) [US20250313563, Compound 947911]
0.1 to 1 µM | < 0.1 µM | CCC1(c2cccc(C)c2)C2=CN=NC2NC2=C1C(=O)CC(C)(C)C2 (stereo unspecified) [US20250313563, Compound 785738]
> 5 µM | 1 to 5 µM | CC[C@]1(c2cccc(-c3ccncc3C)c2)C2=CN=NC2NC2=C1C(=O)N[C@@]1(CCOC1)C2 (stereo partly specified) [US20250313563, Compound 948662]
0.1 to 1 µM | 0.1 to 1 µM | CC[C@@]1(c2cccc(-c3cnn(C)c3)c2)C2=C(CC(C)(C)CC2=O)NC2N=NC(C(F)(F)F)=C21 (stereo partly specified) [US20250313563, Compound 811567]
< 0.1 µM and 1 to 5 µM | < 0.1 µM | CCC1(c2cccc(-c3cnn(C)c3)c2)C2=C(CC(C)(C)NC2=O)NC2N=NC(C(F)F)=C21 (stereo unspecified) [US20250313563, Compound 949171]
1 to 5 µM | 0.1 to 1 µM | CCC1(c2cccc(N(C)c3ccncc3)c2)C2=CN=NC2NC2=C1C(=O)CC(C)(C)C2 (stereo unspecified) [US20250313563, Compound 853910]
< 0.1 µM and 1 to 5 µM | < 0.1 µM and 0.1 to 1 µM | CC[C@]1(c2cccc(N(C)c3nccc(OC)n3)c2)C2=CN=NC2NC2=C1C(=O)CC(C)(C)C2 (stereo partly specified) [US20250313563, Compound 947336]
< 0.1 µM | < 0.1 µM | CC1(C)CC(=O)C2=C(C1)NC1=C(CN=N1)C21CCCC1 [US20250313563, Compound 790666]
1 to 5 µM | 0.1 to 1 µM | CC[C@@]1(c2ccccc2)C2=CN=NC2NC2=C1C(=O)[C@@H](C)C[C@@H]2C (stereo partly specified) [US20250313563, Compound 865198]
> 5 µM | 0.1 to 1 µM | CC[C@@]1(c2cccc(-c3ccnc(C)c3)c2)C2=CN=NC2NC2=C1C(=O)NC(C)(C)C2 (stereo partly specified) [US20250313563, Compound 927326]
1 to 5 µM | 0.1 to 1 µM | CN(C)C(=O)C1CCC2(CC1)C1=C(N=NC1)NC1=C2C(=O)CC(C)(C)C1 (stereo unspecified) [US20250313563, Compound 945395]
1 to 5 µM | 0.1 to 1 µM | CC[C@]1(c2cccc(C3CN(C(C)=O)C3)c2)C2=CN=NC2NC2=C1C(=O)CC(C)(C)C2 (stereo partly specified) [US20250313563, Compound 949131]
> 1.67 µM | 0.1 to 1 µM | CC[C@@]1(c2ccccc2)C2=CN=NC2NC2=C1C(=O)C[C@H](C(F)(F)F)C2 (stereo partly specified) [US20250313563, Compound 806608]
< 0.1 µM | < 0.1 µM | CC1(C)CC(=O)C2=C(C1)NC1=C(CN=N1)C21CCN(S(=O)(=O)c2ccc(Cl)cc2)CC1 [US20250313563, Compound 945661]
1 to 5 µM | 0.1 to 1 µM | CC[C@]1(c2ccccc2)C2=CN=NC2NC2=C1C(=O)[C@@H](F)C(C)(C)C2 (stereo partly specified) [US20250313563, Compound 957405]
< 0.1 µM and 0.1 to 1 µM | < 0.1 µM | COc1ccc(S(=O)(=O)N2CCC3(CC2)C2=C(N=NC2)NC2=C3C(=O)CC(C)(C)C2)c(F)c1 [US20250313563, Compound 947255]
0.1 to 1 µM | < 0.1 µM | CC[C@]1(c2cccc(C(F)(F)F)c2)C2=C(N=NC2)NC2=C1C(=O)CC2 [US20250313563, Compound 951565]
> 5 µM | > 5 µM | CC[C@@]1(c2cccc(N3C[C@H](C)[C@@H](C)C3)c2)C2=CN=NC2NC2=C1C(=O)CC(C)(C)C2 (stereo partly specified) [US20250313563, Compound 924520]
< 0.1 µM | < 0.1 µM | CCC1(c2cccc(N(C)c3ncccn3)c2)C2=C(CC(C)(C)NC2=O)NC2N=NC(C(F)F)=C21 (stereo unspecified) [US20250313563, Compound 950484]
> 5 µM | > 5 µM | CN1CCC2(C1)C1=C(N=NC1)NC1=C2C(=O)CC(C)(C)C1 (stereo unspecified) [US20250313563, Compound 841867]
< 0.1 µM | < 0.1 µM | COc1ccc(S(=O)(=O)N2CCC3(CC2)C2=C(N=NC2)NC2=C3C(=O)CC(C)(C)C2)cc1 [US20250313563, Compound 917143]

— BindingDB's records for patent US20250313563 (The Broad Institute, 2025)
